This is an account of results in ChEMBL document CHEMBL1806475, “Phosphopeptides with improved cellular uptake properties as ligands for the polo-box domain of polo-like kinase 1” (Bioorg Med Chem Lett, 2011).

Where a SMILES comes first, the peptide text is derived from it.

The subject of one data set is FaDu. Kind of data set: Cellular uptake in human FADU cells assessed per mg of protein. Format: ADME, cell-based.
Data set [1] concerns HT-29. Kind of data set: Cellular uptake in human HT-29 cells assessed per mg of protein. In kind it is ADME, cell-based.
The test system of data set [2] is MCF7. Kind of data set: Toxicity in human MCF7 cells at up to 100 uM after 24 hrs. In kind it is cell-based. The note with it: mcf7, 24 h.
In data set [3] the target is Serine/threonine-protein kinase PLK1 (Homo sapiens, UniProt P53350). Kind of data set: Binding affinity to human polo-box domain of PLK1 after 1 hr by fluorescence polarization-based assay.
The subject of data set [4] is MCF7. As to the kind of experiment: Cellular uptake in human MCF7 cell nucleus at 50 uM after 60 mins using Hoechst H33342 dye by fluorescence microscopy analysis. Format: ADME, cell-based. The following applies: mcf7, 1 h.
The subject of data set [5] is MCF7. As to the kind of experiment: Cellular uptake in human MCF7 cells at 25 uM after 60 mins by flow cytometry relative to cellular uptake in human HeLa cells. Format: ADME, cell-based. The note with it: mcf7, 1 h.
For data set [6], the system named is MCF7. As to the kind of experiment: Cellular uptake in human MCF7 cell vesicular compartments at 50 uM after 60 mins using Hoechst H33342 dye by fluorescence microscopy analysis. In kind it is ADME, cell-based. The note with it: mcf7, 1 h.
Data set [7] has as its system HT-29. As to the kind of experiment: Cellular uptake in human HT-29 cells at 25 uM after 60 mins by flow cytometry. Format: ADME, cell-based. The note with it: ht-29, 1 h. In general terms: A flow cytometer gives signals particle by particle.
In data set [8] the test system is HT-29. As to the kind of experiment: Toxicity in human HT-29 cells at up to 100 uM after 24 hrs. In kind it is cell-based. The note with it: ht-29, 24 h.
The subject of data set [9] is HeLa. As to the kind of experiment: Toxicity in human HeLa cells at up to 100 uM after 24 hrs. In kind it is cell-based.
Data set [10] has as its system HT-29. As to the kind of experiment: Cellular uptake in human HT-29 cell vesicular compartments at 25 uM after 60 mins using Hoechst H33342 dye by fluorescence microscopy analysis. Format: ADME, cell-based. The note with it: ht-29, 1 h.
Data set [11] deals with HT-29. Kind of data set: Cellular uptake in human HT-29 cells at 25 uM after 60 mins by flow cytometry relative to cellular uptake in human HeLa cells. The following applies: ht-29, 1 h. Format: ADME, cell-based.
Data set [12] relates to MCF7. As to the kind of experiment: Cellular uptake in human MCF7 cells at 25 uM after 60 mins by flow cytometry. The following applies: mcf7, 1 h. Format: ADME, cell-based.
Data set [13] concerns HeLa. Kind of data set: Cellular uptake in human HeLa cells at 25 uM after 60 mins by flow cytometry. The following applies: 1 h. Format: ADME, cell-based.
Data set [14] concerns HeLa. Kind of data set: Cellular uptake in human HeLa cell vesicular compartments at 50 uM after 60 mins using Hoechst H33342 dye by fluorescence microscopy analysis. Format: ADME, cell-based. The following applies: 1 h.

Chain of Serine/threonine-protein kinase PLK1 (P53350 whole entry, the tested form may be a part): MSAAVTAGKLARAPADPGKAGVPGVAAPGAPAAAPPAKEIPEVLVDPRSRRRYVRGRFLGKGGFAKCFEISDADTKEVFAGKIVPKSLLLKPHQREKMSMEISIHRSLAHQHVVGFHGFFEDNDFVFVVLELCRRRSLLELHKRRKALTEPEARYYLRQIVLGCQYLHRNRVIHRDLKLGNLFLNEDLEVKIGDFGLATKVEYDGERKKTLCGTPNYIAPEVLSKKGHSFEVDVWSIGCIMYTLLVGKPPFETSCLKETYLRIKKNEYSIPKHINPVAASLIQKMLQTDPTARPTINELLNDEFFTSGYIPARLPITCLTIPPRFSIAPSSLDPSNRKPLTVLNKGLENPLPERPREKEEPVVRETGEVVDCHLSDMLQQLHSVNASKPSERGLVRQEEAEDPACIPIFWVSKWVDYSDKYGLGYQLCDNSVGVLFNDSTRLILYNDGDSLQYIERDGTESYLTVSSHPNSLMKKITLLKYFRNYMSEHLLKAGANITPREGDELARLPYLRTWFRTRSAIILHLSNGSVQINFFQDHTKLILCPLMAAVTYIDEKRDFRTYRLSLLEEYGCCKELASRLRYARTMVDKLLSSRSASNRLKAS

On to `CSCC[C@H](NC(=O)c1ccc([18F])cc1)C(=O)N[C@@H](CCC(N)=O)C(=O)N[C@@H](CO)C(=O)N[C@H](C(=O)N1CCC[C@H]1C(=O)N[C@@H](CC(C)C)C(=O)O)[C@@H](C)OP(=O)(O)O`, for which the Drug uptake in the data set with FaDu and with HT-29 [1] was less than 1 %ID in each case.
A word on the Kd: it is the constant that tells how readily two partners part at equilibrium. For `CC[C@H](C)[C@H](NC(=O)[C@H](C)NC(=O)[C@@H](NC(=O)[C@H](CCC(N)=O)NC(=O)[C@@H]1CCCN1C(=O)[C@H](Cc1ccccc1)NC(=O)[C@@H](NC(=O)[C@H](Cc1cnc[nH]1)NC(=O)[C@H](Cc1ccccc1)NC(=O)[C@H](CCCCNC(=O)[C@H](C)NC(=O)[C@H](Cc1ccccc1)NC(=O)[C@H](CCCCN)NC(=O)[C@H](CCCNC(=N)N)NC(=O)[C@H](CCCCN)NC(=O)[C@H](CCCCN)NC(=O)[C@H](CCCCN)NC(=O)[C@@H]1CCCN1C(=O)[C@H](C)NC(=O)[C@H](CCCCN)NC(=O)[C@H](CCCNC(=N)N)NC(=O)[C@H](CCCCN)NC(=O)[C@@H](N)CCCCN)NC(=O)[C@H](CC(C)C)NC(=O)[C@@H]1CCCN1C(=O)[C@@H](NC(=O)[C@H](CO)NC(=O)[C@H](CCC(N)=O)NC(=O)[C@H](CCSC)NC(=O)c1ccc2c(c1)C1(OC2=O)c2ccc(O)cc2Oc2cc(O)ccc21)[C@@H](C)OP(=O)(O)O)[C@@H](C)O)[C@@H](C)O)C(=O)NCC(=O)N[C@H](C(=O)NCC(=O)N[C@@H](C)C(=O)N1CCC[C@H]1C(N)=O)C(C)C` (HELM PEPTIDE1{[O=C1OC2(c3ccc(O)cc3Oc3cc(O)ccc32)c2cc(C(=O)[*:2])ccc21].M.Q.S.[C[C@@H](OP(=O)(O)O)[C@H](N[*:1])C(=O)[*:2]].P.L.K.F.H.T.F.P.Q.T.A.I.G.V.G.A.P.[am]}|PEPTIDE2{K.K.R.K.A.P.K.K.K.R.K.F.A}$PEPTIDE1,PEPTIDE2,8:R3-13:R2$$$V2.0), the Activity result with MCF7 [2], in the data set with HT-29 [8] and with HeLa [9] was “Non-toxic” each time. In [3], this compound displayed a dissociation constant (Kd) of 326 nM. The Drug uptake entry in the data set with MCF7 [4] is recorded as “Active”; with MCF7 [5], 15%; in the data set on MCF7 [6] it was “Active”; in the data set with HT-29 [7] it was “Active”; with HT-29 [10] it was “Active”; in the data set on HT-29 [11], 15%. The Drug uptake result in the data set on MCF7 [12], in the data set with HeLa [13] and in the data set with HeLa [14] was “Active” throughout.
As to `CC[C@H](C)[C@H](NC(=O)[C@H](CCCCN)NC(=O)[C@H](CC(N)=O)NC(=O)[C@H](CCCN=C(N)N)NC(=O)[C@H](Cc1ccccc1)NC(=O)[C@H](CCCCN)NC(=O)[C@H](CCCN=C(N)N)NC(=O)[C@H](CC(C)C)NC(=O)[C@H](CCCN=C(N)N)NC(=O)[C@H](CCCCN)NC(=O)[C@H](CCCN=C(N)N)NC(=O)[C@H](CC(C)C)NC(=O)CNC(=O)[C@H](CC(C)C)NC(=O)[C@@H]1CCCN1C(=O)[C@@H](NC(=O)[C@H](CO)NC(=O)[C@H](CCC(N)=O)NC(=O)[C@H](CCSC)NC(=O)c1ccc2c(c1)C1(OC2=O)c2ccc(O)cc2Oc2cc(O)ccc21)[C@@H](C)OP(=O)(O)O)C(=O)N[C@@H](CCCCN)C(=O)N[C@@H](CCC(=O)O)C(=O)N[C@@H](CCCCN)C(N)=O` (HELM PEPTIDE1{[O=C1OC2(c3ccc(O)cc3Oc3cc(O)ccc32)c2cc(C(=O)[*:2])ccc21].M.Q.S.[C[C@@H](OP(=O)(O)O)[C@H](N[*:1])C(=O)[*:2]].P.L.G.L.R.K.R.L.R.K.F.R.N.K.I.K.E.K.[am]}$$$$V2.0), the Activity result in the data set with MCF7 [2], with HT-29 [8] and in the data set with HeLa [9] was “Non-toxic” in each case. This compound also displayed a dissociation constant Kd in data set [3] of 256 nM. Also, the Drug uptake is given as 15% in the data set on MCF7 [5]; “Active” in the data set on MCF7 [6]; “Active” in the data set on HT-29 [7]; “Active” with HT-29 [10]; 15% in the data set with HT-29 [11]; “Active” in the data set on MCF7 [12]. Moreover, the Drug uptake result with HeLa [13] and in the data set with HeLa [14] was “Active” throughout.
As to `CSCC[C@H](NC(=O)c1ccc2c(c1)C1(OC2=O)c2ccc(O)cc2Oc2cc(O)ccc21)C(=O)N[C@@H](CCC(N)=O)C(=O)N[C@@H](CO)C(=O)N[C@H](C(=O)N1CCC[C@H]1C(=O)N[C@@H](CC(C)C)C(=O)O)[C@@H](C)OP(=O)(O)O`, in data set [3], binding was put at a Kd of 93 nM. The Drug uptake result is reported as “Not Active” in the data set with MCF7 [6]; “Active” with HT-29 [7]; “Not Active” with HT-29 [10]; “Not Active” with MCF7 [12]; “Not Active” in the data set on HeLa [13]; “Not Active” in the data set on HeLa [14].
